Format in all cases: cell-based
Test [1] addresses protein kinases (human kinome) (Homo sapiens, UniProt Q15131). Conditions: for logFC: CDK10 (Q15131-1).
Test [2] concerns the target T1, protein kinases (human kinome) (Homo sapiens, UniProt O00444).
T1 sequence (O00444 1-970): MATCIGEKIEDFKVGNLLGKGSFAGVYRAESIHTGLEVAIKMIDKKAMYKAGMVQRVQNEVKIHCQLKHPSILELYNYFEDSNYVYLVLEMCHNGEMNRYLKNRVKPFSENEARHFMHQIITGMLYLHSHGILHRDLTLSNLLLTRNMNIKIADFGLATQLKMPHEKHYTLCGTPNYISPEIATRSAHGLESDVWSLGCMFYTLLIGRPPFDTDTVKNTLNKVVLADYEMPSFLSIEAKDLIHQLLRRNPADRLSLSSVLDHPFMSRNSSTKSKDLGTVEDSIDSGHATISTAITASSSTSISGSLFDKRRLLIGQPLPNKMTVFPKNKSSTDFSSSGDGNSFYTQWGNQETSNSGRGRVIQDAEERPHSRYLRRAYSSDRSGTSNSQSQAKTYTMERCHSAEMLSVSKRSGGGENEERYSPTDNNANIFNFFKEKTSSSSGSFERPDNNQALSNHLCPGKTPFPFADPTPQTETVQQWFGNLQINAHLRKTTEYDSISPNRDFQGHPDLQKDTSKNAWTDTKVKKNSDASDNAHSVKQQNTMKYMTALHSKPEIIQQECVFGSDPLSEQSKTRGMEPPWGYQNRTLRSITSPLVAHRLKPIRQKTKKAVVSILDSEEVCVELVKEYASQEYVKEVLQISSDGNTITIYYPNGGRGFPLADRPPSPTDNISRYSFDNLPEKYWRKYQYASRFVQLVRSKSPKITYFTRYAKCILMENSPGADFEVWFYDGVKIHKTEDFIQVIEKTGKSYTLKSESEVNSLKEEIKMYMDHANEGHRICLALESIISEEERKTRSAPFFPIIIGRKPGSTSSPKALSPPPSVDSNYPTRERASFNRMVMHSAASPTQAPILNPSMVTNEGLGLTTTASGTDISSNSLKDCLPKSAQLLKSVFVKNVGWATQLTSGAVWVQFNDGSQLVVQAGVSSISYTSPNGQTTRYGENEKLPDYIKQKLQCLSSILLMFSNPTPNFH

Test [3] addresses T2, protein kinases (human kinome) (Homo sapiens, UniProt Q6PHR2).
T2 sequence (Q6PHR2 1-472): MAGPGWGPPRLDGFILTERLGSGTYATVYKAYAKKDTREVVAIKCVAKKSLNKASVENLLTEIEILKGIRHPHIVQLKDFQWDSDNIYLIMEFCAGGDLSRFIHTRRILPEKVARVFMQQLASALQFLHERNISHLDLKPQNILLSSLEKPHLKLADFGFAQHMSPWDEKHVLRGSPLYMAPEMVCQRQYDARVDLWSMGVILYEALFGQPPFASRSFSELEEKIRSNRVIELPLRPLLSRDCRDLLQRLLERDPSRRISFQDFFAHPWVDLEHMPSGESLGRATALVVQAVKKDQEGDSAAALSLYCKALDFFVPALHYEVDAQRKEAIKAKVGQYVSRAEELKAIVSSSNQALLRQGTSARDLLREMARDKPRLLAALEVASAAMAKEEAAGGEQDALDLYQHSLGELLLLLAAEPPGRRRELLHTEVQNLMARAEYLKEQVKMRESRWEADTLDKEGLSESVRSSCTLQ
Conditions: for logFC ULK3: ULK3 (Q6PHR2-1).

In test [4] the target is protein kinases (human kinome) (Homo sapiens, UniProt Q16659).
Sequence of protein kinases (human kinome) (Homo sapiens, UniProt Q16659) (Q16659 whole entry): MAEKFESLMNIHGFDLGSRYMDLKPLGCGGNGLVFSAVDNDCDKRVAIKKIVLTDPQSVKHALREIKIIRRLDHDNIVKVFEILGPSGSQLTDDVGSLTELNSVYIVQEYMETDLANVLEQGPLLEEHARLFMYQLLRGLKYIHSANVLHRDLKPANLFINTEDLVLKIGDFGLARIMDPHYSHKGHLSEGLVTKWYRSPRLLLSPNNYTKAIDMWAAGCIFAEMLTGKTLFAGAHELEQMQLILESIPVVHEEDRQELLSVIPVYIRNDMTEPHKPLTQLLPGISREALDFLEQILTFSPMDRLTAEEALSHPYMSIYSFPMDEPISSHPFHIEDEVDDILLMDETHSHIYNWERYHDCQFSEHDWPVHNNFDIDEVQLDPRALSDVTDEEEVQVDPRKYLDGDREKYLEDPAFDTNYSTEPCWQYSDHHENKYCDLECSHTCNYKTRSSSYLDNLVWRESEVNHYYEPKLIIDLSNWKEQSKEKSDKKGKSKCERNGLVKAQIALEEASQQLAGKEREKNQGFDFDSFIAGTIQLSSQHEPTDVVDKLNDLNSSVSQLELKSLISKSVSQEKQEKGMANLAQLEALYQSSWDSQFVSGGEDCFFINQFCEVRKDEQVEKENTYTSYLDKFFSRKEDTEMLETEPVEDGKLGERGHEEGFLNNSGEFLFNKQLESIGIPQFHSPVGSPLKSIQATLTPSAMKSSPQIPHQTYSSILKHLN
In test [5] the target is protein kinases (human kinome) (Homo sapiens, UniProt P21127).
Sequence of protein kinases (human kinome) (Homo sapiens, UniProt P21127) (P21127 whole entry): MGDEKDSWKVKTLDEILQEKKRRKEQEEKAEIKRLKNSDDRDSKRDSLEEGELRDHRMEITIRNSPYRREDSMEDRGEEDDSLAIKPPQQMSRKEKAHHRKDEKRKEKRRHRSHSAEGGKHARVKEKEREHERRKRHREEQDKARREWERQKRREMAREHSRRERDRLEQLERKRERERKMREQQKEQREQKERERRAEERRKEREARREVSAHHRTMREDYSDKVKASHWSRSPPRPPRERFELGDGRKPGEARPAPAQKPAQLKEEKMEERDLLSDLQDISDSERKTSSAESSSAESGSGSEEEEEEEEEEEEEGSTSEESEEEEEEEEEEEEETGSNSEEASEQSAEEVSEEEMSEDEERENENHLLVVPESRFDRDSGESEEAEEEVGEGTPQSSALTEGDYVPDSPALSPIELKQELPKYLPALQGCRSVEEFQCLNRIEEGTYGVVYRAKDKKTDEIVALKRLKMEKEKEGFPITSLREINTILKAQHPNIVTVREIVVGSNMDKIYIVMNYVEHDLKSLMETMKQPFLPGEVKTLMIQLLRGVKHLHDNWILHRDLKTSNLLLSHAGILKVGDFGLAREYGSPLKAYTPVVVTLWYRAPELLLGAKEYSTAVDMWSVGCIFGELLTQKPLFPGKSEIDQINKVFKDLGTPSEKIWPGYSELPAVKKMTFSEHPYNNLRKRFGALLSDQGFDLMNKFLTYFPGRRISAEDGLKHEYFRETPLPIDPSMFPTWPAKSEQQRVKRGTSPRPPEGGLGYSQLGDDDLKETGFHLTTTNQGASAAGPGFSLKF
The mark [6] stands for this setting: Accession O00444, experiment wp131, direction down.
Setting [7] is: Accession O00444, experiment wp137, direction down.
Setting [8] is: PLK4 (O00444), experiment wp137.
[9] abbreviates: MAPK6 (Q16659), experiment wp131.
Setting [10] is: CDK11B P21127-1, experiment wp168.
[11] abbreviates: CDK11B P21127-1, experiment wp045.
Where [12] appears, read: CDK11B P21127-1, experiment wp105.
[13] abbreviates: CDK11B P21127-1, experiment wp117.
[14] abbreviates: CDK11B P21127-1, experiment wp160, 4 hr.
Where [15] appears, read: CDK11B P21127-1, experiment wp160, 8 hr.
[16] abbreviates: CDK11B P21127-1, experiment wp172.

Where two headings read alike, the source gives them in different places.

Sequence of protein kinases (human kinome) (Homo sapiens, UniProt Q15131) (Q15131 whole entry): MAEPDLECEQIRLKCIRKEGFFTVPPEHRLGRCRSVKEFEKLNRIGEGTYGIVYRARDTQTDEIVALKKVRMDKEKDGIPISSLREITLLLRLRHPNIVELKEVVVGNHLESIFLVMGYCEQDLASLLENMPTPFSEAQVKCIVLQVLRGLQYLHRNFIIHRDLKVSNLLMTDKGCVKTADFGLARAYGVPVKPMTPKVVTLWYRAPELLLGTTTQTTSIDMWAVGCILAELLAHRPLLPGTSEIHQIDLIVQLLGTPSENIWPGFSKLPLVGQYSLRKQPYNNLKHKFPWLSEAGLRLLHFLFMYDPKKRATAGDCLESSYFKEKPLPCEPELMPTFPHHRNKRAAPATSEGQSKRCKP

In the case of `CC(C)S(=O)(=O)c1ccccc1Nc1nc(Nc2ccc(N3CCN(CCOCCOCCNC(=O)CNc4cccc5c4C(=O)N(C4CCC(=O)NC4=O)C5=O)CC3)cc2)ncc1Cl` (stereo not drawn) [TL12.186], the logFC in test [1] (experiment wp131) is reported as −0.935; in test [4] (setting [9]), −1.488; in test [4] (MAPK6 (Q16659), experiment wp131, direction down) it was −1.488. In test [1] (experiment wp131), the “logFC of CDK10 (Q15131-1)” value is on record as −0.935. The “logFC PLK4” value is −1.559 in test [2] (setting [6]), −1.159 in test [2] (setting [7]) and −1.159 in test [2] (setting [8]). For the same molecule, the “logFC PLK4 (O00444)” value in test [2] (experiment wp131) is reported as −1.559. Further, the figures for the “logFC ULK3” value in test [3] (experiment wp131) and in test [3] (experiment wp137) were −1.074 and −1.174, respectively. Also, the “logFC ULK3 (Q6PHR2-1)” value is on record as −1.074 in test [3] (experiment wp131) and −1.174 in test [3] (experiment wp137).

Take `CS(=O)(=O)Nc1cccc(-c2csc3cnc(Nc4ccc(N5CCN(CCCCCOc6cccc7c6C(=O)N(C6CCC(=O)NC6=O)C7=O)CC5)cc4)nc23)c1` (stereo not drawn) [DB0614, N-(3-(2-((4-(4-(5-((2-(2,6-Dioxopiperidin-3-yl)-1,3-dioxoisoindolin-4-yl)oxy)pentyl)piperazin-1-yl)phenyl)amino)thieno[3,2-d]pyrimidin-7-yl)phenyl)methanesulfonamide]: in test [2] (Accession O00444, experiment wp117, direction down), the “logFC PLK4” value is on record as −0.5414. In addition, the “logFC PLK4 (O00444)” value in test [2] (experiment wp117) was −0.5414. In test [3] (experiment wp045), the “logFC ULK3” value is recorded as −0.9461 and the “logFC ULK3 (Q6PHR2-1)” value is listed as −0.9461. Also, in test [3] (experiment wp117), the “logFC ULK3” value is on record as −0.8307 and the “logFC ULK3 (Q6PHR2-1)” value is reported as −0.8307.

For `Cc1ccc(NC(=O)c2cccc(C(F)(F)F)c2)cc1N1Cc2cnc(Nc3ccc(N4CCN(CCCCC(=O)N[C@H](C(=O)N5C[C@H](O)C[C@H]5C(=O)N[C@@H](C)c5ccc(-c6scnc6C)cc5)C(C)(C)C)CC4)nc3)nc2N(C)C1=O` [DB1113], in test [5] (setting [10]), the logFC is recorded as −0.8736 and the “logFC CDK11B” value is −0.8736.

`Cc1ncsc1-c1ccc([C@H](C)NC(=O)[C@@H]2C[C@@H](O)CN2C(=O)[C@@H](NC(=O)CCOCCOCCN2CCN(c3ccc(Nc4ncc(Cl)c(Nc5ccccc5S(=O)(=O)C(C)C)n4)cc3)CC2)C(C)(C)C)cc1` [FMF.06.098.1]: in test [2] (setting [6]), the “logFC PLK4” value is listed as −0.7435. Besides, the “logFC PLK4 (O00444)” value in test [2] (experiment wp131) was −0.7435. Further, in test [4] (setting [9]), the logFC is −0.4123 and the “logFC MAPK6” value is listed as −0.4123.

Consider `Cc1ccc(NC(=O)c2cccc(C(F)(F)F)c2)cc1N1Cc2cnc(Nc3ccc(N4CCN(Cc5cn(CCCCCOc6cccc7c6C(=O)N(C6CCC(=O)NC6=O)C7=O)nn5)CC4)nc3)nc2N(C)C1=O` (stereo not drawn) [DB0646, N-(3-(7-((6-(4-((1-(5-((2-(2,6-Dioxopiperidin-3-yl)-1,3-dioxoisoindolin-4-yl)oxy)pentyl)-1H-1,2,3-triazol-4-yl)methyl)piperazin-1-v)pyridin-3-yl)amino)-1-methyl-2-oxo-1,4-dihydropyrimido[4,5-d]pyrimidin-3(2H)-yl)-4-methylphenyl)-3-(trifluoromethyl)benzamide], for which the logFC in test [5] (setting [11]) is given as −0.4555; in test [5] (setting [12]) it was −0.3542; in test [5] (setting [13]), −0.4695; in test [5] (setting [14]) it was −0.5122; in test [5] (setting [15]), −0.644; in test [5] (setting [16]) it was −0.4624. Besides, the logFC in test [5] (CDK11B P21127, experiment wp152) was −0.5948. Also, the “logFC CDK11B” value was −0.4555 in test [5] (setting [11]); −0.3542 in test [5] (setting [12]); −0.4695 in test [5] (setting [13]); −0.5122 in test [5] (setting [14]); −0.644 in test [5] (setting [15]); −0.4624 in test [5] (setting [16]). Moreover, the “logFC of CDK11B (P21127)” value in test [5] (experiment wp152) is reported as −0.5948.

In test [4] (MAPK6 (Q16659), experiment wp118), `C[C@@H]1C[C@@H](O)c2ncnc(N3CCN(C(=O)[C@H](CNCCCCCCCCCCc4cccc5c4C(=O)N(C4CCC(=O)NC4=O)C5=O)c4ccc(Cl)cc4)CC3)c21` (stereo partly drawn) [INY.03.041.01] yielded a logFC of −0.6183. The “logFC MAPKG” value in test [4] (MAPKG Q16659, experiment wp118) is −0.6183.

On to `CS(=O)(=O)Nc1cccc(-c2csc3cnc(Nc4ccc(N5CCN(CCOCCOCCOc6cccc7c6C(=O)N(C6CCC(=O)NC6=O)C7=O)CC5)cc4)nc23)c1` (stereo not drawn) [RSS0628], for which, in test [3] (experiment wp045), the “logFC ULK3” value was −1.086 and the “logFC ULK3 (Q6PHR2-1)” value is listed as −1.086.

In the case of `Cc1ccc(NC(=O)c2cccc(C(F)(F)F)c2)cc1N1Cc2cnc(Nc3ccc(N4CCN(CCCOc5cccc6c5C(=O)N(C5CCC(=O)NC5=O)C6=O)CC4)nc3)nc2N(C)C1=O` (stereo not drawn) [DB0662], in test [5] (setting [10]), the logFC is −0.5946 and the “logFC CDK11B” value is −0.5946.

In the case of `O=C(COc1cccc2c1C(=O)N(C1CCC(=O)NC1=O)C2=O)NCCCCCCCN1CCc2cc(Nc3ncc(C4CC4)c(NCCCNC(=O)C4CCC4)n3)ccc2C1` (stereo not drawn) [BSJ.04.178], in test [1] (experiment wp134), the logFC is −0.6546 and the “logFC of CDK10 (Q15131-1)” value is given as −0.6546.

With `CNC(=O)c1ccccc1Nc1cc(Nc2ccc(N3CCN(CCOCCOCCNC(=O)CNc4cccc5c4C(=O)N(C4CCC(=O)NC4=O)C5=O)CC3)cc2OC)ncc1C(F)(F)F` (stereo not drawn) [MFH.5.103.1], in test [1] (experiment wp076), the logFC is given as −0.6988 and the “logFC of CDK10 (Q15131-1)” value was −0.6988.

As to `CC(C)S(=O)(=O)c1ccccc1Nc1nc(Nc2ccc(N3CCN(CCOCCOCCC(=O)NCCNc4cccc5c4CN(C4CCC(=O)NC4=O)C5=O)CC3)cc2)ncc1Cl` (stereo not drawn) [TL13.97], in test [2] (setting [7]), the “logFC PLK4” value was −1.049. The “logFC PLK4” value in test [2] (setting [8]) is listed as −1.049. For the same molecule, in test [3] (experiment wp137), the “logFC ULK3” value was −0.3729 and the “logFC ULK3 (Q6PHR2-1)” value is given as −0.3729.

With `Cc1ncsc1-c1ccc([C@H](C)NC(=O)[C@@H]2C[C@@H](O)CN2C(=O)[C@@H](NC(=O)CCCCCN2CCN(c3ccc(Nc4ncc5scc(-c6cccc(NS(C)(=O)=O)c6)c5n4)cc3)CC2)C(C)(C)C)cc1` [RSS0680, (2S,4R)-1-((S)-3,3-Dimethyl-2-(6-(4-(4-((7-(3-(methylsulfonamido)phenyl)thieno[3,2-d]pyrimidin-2-yl)amino)phenyl)piperazin-1-yl)hexanamido)butanoyl)-4-hydroxy-N—((S)-1-(4-(4-methylthiazol-5yl)phenyl)ethyl)pyrrolidine-2-carboxamide], in test [4] (MAPK6 Q16659, experiment wp080), the logFC is recorded as −0.5033 and the “logFC MAPK6” value is reported as −0.5033.
